{"source": "patent US20060148679A1", "about": "“Glycosolated enkephalin agents” (priority 2003, published 2006)", "tested_on": "male ICR mice", "assay": "55° C. tail flick test for antinociception", "assay_type": "in vivo", "procedure": "The mouse anti-nociception tests were conducted with male ICR mice weighing 25-35 grams using the 55° C. tail flick test. A baseline latency was taken for each mouse. Then the mice were injected with drug and tested for antinociception at various times post-injection. A ten second cut off point was used to avoid tissue damage. The percent of antinociception was calculated as ((Test latency-Control Latency)/(10-Control Latency))×100. The majority of the drugs were tested at varying dosages.\nNote the in the nomenclature used in Table 2, the D-threonine residues are indicated at “t,” the “L-Ser” indicate the isomer of serine and not a second leucine, and the sugars are indicated in parenthesis at their site of attachment. The molecules have been tested for anti-nociception in the […] animal model using the standard tail flick assay. The molecules were tested for binding to the opioid receptors and for analgesic effect delivered either to the brain (ICV) or to the bloodstream (IV). Table 2 is appended to the end of this specification.", "data": [{"smiles": "CN1CC[C@]23c4c5ccc(O)c4O[C@H]2[C@@H](O)C=C[C@H]3[C@H]1C5", "note": "[Morphine]", "values": [{"measurement": "IV (Mouse)", "setting": "delivered to the bloodstream (i.v.)", "value": 6.3, "unit": "µmol/kg"}, {"measurement": "ICV (Mouse) IC50", "setting": "delivered to the brain (i.c.v.)", "value": 2.7, "unit": "nmol"}]}]}
